Data taken from PubChem BioAssay AID248 (DTP/NCI, 2004).
Several values for one entry are separate records, joined by “and”; a condition that tells them apart may be missing. Identical values can stand only once. Inconclusive results and toxic doses are left out. Rule as the data show it: active = T/C of 150% or more; inactive = T/C below 125%.

System: L1210 leukemia ip in BDF1 mice, survival T/C
Assay: NCI In Vivo Anticancer Drug Screen. Data for tumor model L1210 Leukemia (intraperitoneal) in B6D2F1 (BDF1) mice
Details: endpoint: mean survival time, higher = longer survival
How it was run: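 Antitumor effect is assessed in tumor-bearing animals. Survival in the compound arm is compared with a vehicle-dosed control arm and expressed as their quotient.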

[1] = dose: 100.0 mg/kg/injection, schedule: Q04DX003 (ip), vehicle: saline with Tween-80
[2] = dose: 200.0 mg/kg/injection, schedule: Q04DX003 (ip), vehicle: saline with Tween-80
[3] = dose: 400.0 mg/kg/injection, schedule: Q04DX003 (ip), vehicle: saline with Tween-80
[4] = dose: 100.0 mg/kg/injection, schedule: Q01DX001 (ip), vehicle: saline
[5] = dose: 200.0 mg/kg/injection, schedule: Q01DX001 (ip), vehicle: saline
[6] = dose: 400.0 mg/kg/injection, schedule: Q01DX001 (ip), vehicle: saline
[7] = dose: 100.0 mg/kg/injection, schedule: Q01DX009 (ip), vehicle: Klucel (hydroxypropylcellulose) (HPC)
[8] = dose: 100.0 mg/kg/injection, schedule: Q04DX003 (ip), vehicle: Klucel (hydroxypropylcellulose) (HPC)
[9] = dose: 200.0 mg/kg/injection, schedule: Q01DX009 (ip), vehicle: Klucel (hydroxypropylcellulose) (HPC)
[10] = dose: 200.0 mg/kg/injection, schedule: Q04DX003 (ip), vehicle: Klucel (hydroxypropylcellulose) (HPC)
[11] = dose: 400.0 mg/kg/injection, schedule: Q01DX009 (ip), vehicle: Klucel (hydroxypropylcellulose) (HPC)
[12] = dose: 400.0 mg/kg/injection, schedule: Q04DX003 (ip), vehicle: Klucel (hydroxypropylcellulose) (HPC)
[13] = dose: 100.0 mg/kg/injection, schedule: Q04DX002 (ip), vehicle: saline with Tween-80

Measured: T/C

CN(C)/N=C/c1ccccc1C(=O)O
inactive: dose: 50.0 mg/kg/injection, schedule: Q04DX003 (ip), vehicle: saline with Tween-80 101 % of control | [1] 97 % of control | [2] 96 % of control | [3] 106 % of control

CN(C)P(=O)(N(C)C)N(C)C
inactive: [4] 101 % of control | [5] 98 % of control | [6] 102 % of control | dose: 1:6400.0 dilution, schedule: Q01DX009 (ip), vehicle: saline 107 % of control

O=CC1CC2c3ccccc3C1c1ccccc12 (centres undefined)
inactive: dose: 100.0 mg/kg/injection, schedule: Q01DX009 (ip), vehicle: gum acacia 106 % of control | dose: 100.0 mg/kg/injection, schedule: Q04DX003 (ip), vehicle: gum acacia 95 % of control | dose: 200.0 mg/kg/injection, schedule: Q01DX009 (ip), vehicle: gum acacia 95 % of control | dose: 200.0 mg/kg/injection, schedule: Q04DX003 (ip), vehicle: gum acacia 92 % of control | dose: 400.0 mg/kg/injection, schedule: Q01DX009 (ip), vehicle: gum acacia 102 % of control | dose: 400.0 mg/kg/injection, schedule: Q04DX003 (ip), vehicle: gum acacia 87 % of control

COc1cc2ccc(C(C)NCC(=O)O)cc2cc1OC (centres undefined)
inactive: [7] 100 % of control | [8] 93 % of control | [9] 100 % of control | [10] 90 % of control | [11] 94 % of control | [12] 90 % of control

O=COCC1CC2C=CC1C2 (centres undefined)
inactive: dose: 222.0 mg/kg/injection, schedule: Q01DX Z (ip), vehicle: saline 98 % of control | dose: 333.0 mg/kg/injection, schedule: Q01DX Z (ip), vehicle: saline 102 % of control | dose: 500.0 mg/kg/injection, schedule: Q01DX Z (ip), vehicle: saline 97 % of control

Cc1ccc2c(C)c3c(ccc4ccccc43)c[n+]2c1
inactive: dose: 0.36 mg/kg/injection, schedule: Q01DX015 (ip), vehicle: saline 110 % of control | dose: 0.55 mg/kg/injection, schedule: Q01DX015 (ip), vehicle: saline 104 % of control | dose: 0.83 mg/kg/injection, schedule: Q01DX015 (ip), vehicle: saline 110 % of control | dose: 1.25 mg/kg/injection, schedule: Q01DX015 (ip), vehicle: saline 105 % of control and 112 % of control | dose: 2.5 mg/kg/injection, schedule: Q01DX015 (ip), vehicle: saline 103 % of control | dose: 2.5 mg/kg/injection, schedule: Q04DX003 (ip), vehicle: saline 101 % of control | dose: 5.0 mg/kg/injection, schedule: Q01DX001 (ip), vehicle: saline 94 % of control | dose: 5.0 mg/kg/injection, schedule: Q01DX015 (ip), vehicle: saline 111 % of control | dose: 5.0 mg/kg/injection, schedule: Q04DX003 (ip), vehicle: saline 95 % of control | dose: 10.0 mg/kg/injection, schedule: Q01DX001 (ip), vehicle: saline 96 % of control | dose: 10.0 mg/kg/injection, schedule: Q01DX015 (ip), vehicle: saline 110 % of control and 117 % of control | dose: 10.0 mg/kg/injection, schedule: Q04DX003 (ip), vehicle: saline 111 % of control | dose: 20.0 mg/kg/injection, schedule: Q01DX001 (ip), vehicle: saline 102 % of control | dose: 20.0 mg/kg/injection, schedule: Q04DX003 (ip), vehicle: saline 113 % of control

COc1cc(/C=C/C(C)=O)ccc1O
inactive: dose: 50.0 mg/kg/injection, schedule: Q01DX009 (ip), vehicle: saline with Tween-80 101 % of control | dose: 100.0 mg/kg/injection, schedule: Q01DX009 (ip), vehicle: saline with Tween-80 101 % of control | [1] 93 % of control | dose: 200.0 mg/kg/injection, schedule: Q01DX009 (ip), vehicle: saline with Tween-80 98 % of control | [2] 98 % of control | [3] 98 % of control

CCN(CC)C(=O)c1cccc(N)c1
inactive: [4] 98 % of control | [5] 98 % of control | [6] 95 % of control

CNC(=O)OC1CCCCC1CN(C)C (centres undefined)
inactive: dose: 55.0 mg/kg/injection, schedule: Q01DX Z (ip), vehicle: saline 91 % of control | dose: 83.0 mg/kg/injection, schedule: Q01DX Z (ip), vehicle: saline 109 % of control | dose: 125.0 mg/kg/injection, schedule: Q01DX Z (ip), vehicle: saline 113 % of control

C#CC1(O)CCCCCC1
inactive: [13] 95 % of control | dose: 200.0 mg/kg/injection, schedule: Q04DX002 (ip), vehicle: saline with Tween-80 100 % of control | dose: 400.0 mg/kg/injection, schedule: Q04DX002 (ip), vehicle: saline with Tween-80 92 % of control

c1ccc(C[N+]23CCC(CC2)CC3)cc1
inactive: dose: 3.13 mg/kg/injection, schedule: Q01DX009 (ip), vehicle: saline 95 % of control | dose: 6.25 mg/kg/injection, schedule: Q01DX009 (ip), vehicle: saline 99 % of control | dose: 12.5 mg/kg/injection, schedule: Q01DX009 (ip), vehicle: saline 101 % of control

COc1ccc(COC(=O)Oc2ccc(OC)cc2)cc1
inactive: [8] 102 % of control | [10] 98 % of control | [12] 112 % of control

CCCC(C(=O)O)N(C)Cc1ccccc1 (centres undefined)
inactive: dose: 100.0 mg/kg/injection, schedule: Q01DX009 (ip), vehicle: acetone 92 % of control | dose: 200.0 mg/kg/injection, schedule: Q01DX009 (ip), vehicle: acetone 101 % of control | dose: 400.0 mg/kg/injection, schedule: Q01DX009 (ip), vehicle: acetone 97 % of control

Cc1c([N+](=O)[O-])cc(NC(=O)/C=C\C(=O)O)cc1[N+](=O)[O-]
inactive: [1] 113 % of control | [2] 113 % of control | [3] 109 % of control

COC(=O)C1Oc2ccc(Cl)cc2Cc2cc(Cl)ccc2O1
inactive: [7] 93 % of control | [8] 100 % of control | [9] 93 % of control | [10] 93 % of control | [11] 93 % of control | [12] 90 % of control

CN1CCCC(CC2c3ccccc3Sc3ccccc32)C1 (centres undefined)
inactive: dose: 2.0 mg/kg/injection, schedule: Q01DX015 (ip), vehicle: carboxymethylcellulose (CMC) 108 % of control | dose: 4.0 mg/kg/injection, schedule: Q01DX015 (ip), vehicle: carboxymethylcellulose (CMC) 98 % of control | dose: 8.0 mg/kg/injection, schedule: Q01DX015 (ip), vehicle: carboxymethylcellulose (CMC) 97 % of control | dose: 16.0 mg/kg/injection, schedule: Q01DX015 (ip), vehicle: carboxymethylcellulose (CMC) 91 % of control | dose: 32.0 mg/kg/injection, schedule: Q01DX015 (ip), vehicle: carboxymethylcellulose (CMC) 92 % of control

COc1cc2cccccc-2cc1=O
inactive: dose: 50.0 mg/kg/injection, schedule: Q01DX009 (ip), vehicle: other 104 % of control | dose: 100.0 mg/kg/injection, schedule: Q01DX009 (ip), vehicle: other 89 % of control | [8] 103 % of control | dose: 200.0 mg/kg/injection, schedule: Q01DX009 (ip), vehicle: other 101 % of control | [10] 97 % of control | [12] 103 % of control

O=C(CCl)Nc1ccc([N+](=O)[O-])cc1
inactive: dose: 25.0 mg/kg/injection, schedule: Q04DX002 (ip), vehicle: saline with Tween-80 103 % of control | dose: 50.0 mg/kg/injection, schedule: Q04DX002 (ip), vehicle: saline with Tween-80 93 % of control | [13] 97 % of control
